“And” between values parts separate entries of the source, which are not always exact repeats. Equal values may be shown once.
Tests used:
Conditions in all cases: exposure time: 72 h
E34 [1] = patient-derived glioblastoma stem cells of proneural subtype; assay: phenotypic distance (Euclidean, principal components) from DMSO controls (arbitrary units); higher = stronger morphological change
E31 [2] = patient-derived glioblastoma stem cells of proneural subtype; assay: as above
E28 [3] = patient-derived glioblastoma stem cells of classical subtype; assay: as above
E21 [4] = patient-derived glioblastoma stem cells of mesenchymal subtype; assay: as above
E57 [5] = patient-derived glioblastoma stem cells of mesenchymal subtype; assay: as above
E13 [6] = patient-derived glioblastoma stem cells of classical subtype; assay: as above
FT3469 [7] = normal neural stem cell line; assay: as above
E34 [8] = assay: surviving fraction (nuclei count normalised to DMSO); higher = more cells surviving (less toxic)
E31 [9] = assay: as above
E28 [10] = assay: as above
E21 [11] = assay: as above
E57 [12] = assay: as above
E13 [13] = assay: as above
FT3469 [14] = assay: as above
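Wherever phenotypic distance (Euclidean, principal components) from DMSO controls is given: cell Painting imaging in 384-well plates, CellProfiler features reduced to at least 20 principal components, Euclidean distance versus same-plate DMSO vehicle wells (0.1% v/v), median over six images per well.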
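Wherever surviving fraction (nuclei count normalised to DMSO) is given: nuclei counted by high-content imaging of Hoechst-stained cells in laminin-coated 384-well plates, relative to 0.1% DMSO vehicle wells, with staurosporine as cell-death control.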

Cc1ccc(C(=O)N(CCCN)[C@@H](c2oc3cc(Cl)ccc3c(=O)c2Cc2ccccc2)C(C)C)cc1
Conditions	phenotypic distance	surviving fraction
E13 [6], 4.1 nM	3.01 and 2.45	–
E13 [6], 12.3 nM	3.35 and 2.7	–
E13 [6], 37 nM	2.78	–
E13 [6], 111.1 nM	3.42 and 3.07	–
E13 [6], 333.3 nM	2.78 and 2.91	–
E13 [6], 1000 nM	2.81 and 3.02	–
E13 [6], 3000 nM	2.53 and 5.91	–
E13 [13], 4.1 nM	–	0.451 and 0.49
E13 [13], 12.3 nM	–	0.443 and 0.489
E13 [13], 37 nM	–	0.461 and 0.468
E13 [13], 111.1 nM	–	0.399 and 0.43
E13 [13], 333.3 nM	–	0.428 and 0.492
E13 [13], 1000 nM	–	0.445 and 0.399
E21 [4], 4.1 nM	6.85 and 5.14	–
E21 [4], 12.3 nM	6.99 and 5.4	–
E21 [4], 37 nM	7.53 and 5.43	–
E21 [4], 111.1 nM	5.98 and 4.77	–
E21 [4], 333.3 nM	7.67 and 4.85	–
E21 [4], 1000 nM	6.93 and 5.54	–
E21 [4], 3000 nM	10.1 and 4.79	–
E21 [11], 4.1 nM	–	0.198 and 0.164
E21 [11], 12.3 nM	–	0.186 and 0.161
E21 [11], 37 nM	–	0.159 and 0.158
E21 [11], 111.1 nM	–	0.192 and 0.177
E21 [11], 333.3 nM	–	0.178 and 0.162
E21 [11], 1000 nM	–	0.21 and 0.182
E28 [3], 4.1 nM	3.6 and 2.9	–
E28 [3], 12.3 nM	3.5 and 3.14	–
E28 [3], 37 nM	3.73 and 3.19	–
E28 [3], 111.1 nM	3.42 and 3.15	–
E28 [3], 333.3 nM	3.17 and 2.59	–
E28 [3], 1000 nM	3.49 and 3.39	–
E28 [10], 4.1 nM	–	0.424 and 0.34
E28 [10], 12.3 nM	–	0.335 and 0.367
E28 [10], 37 nM	–	0.415 and 0.342
E28 [10], 111.1 nM	–	0.346 and 0.352
E28 [10], 333.3 nM	–	0.428 and 0.43
E28 [10], 1000 nM	–	0.328 and 0.336
E31 [2], 4.1 nM	4.81	–
E31 [2], 12.3 nM	3.13	–
E31 [2], 37 nM	3.36	–
E31 [2], 111.1 nM	3.73	–
E31 [2], 333.3 nM	4.39	–
E31 [2], 1000 nM	3.79	–
E31 [2], 3000 nM	11.9	–
E31 [9], 4.1 nM	–	0.165
E31 [9], 12.3 nM	–	0.184
E31 [9], 37 nM	–	0.189
E31 [9], 111.1 nM	–	0.126
E31 [9], 333.3 nM	–	0.171
E31 [9], 1000 nM	–	0.174
E31 [9], 3000 nM	–	0.00446
E34 [1], 4.1 nM	2.72 and 1.93	–
E34 [1], 12.3 nM	2.65 and 1.73	–
E34 [1], 37 nM	2.52 and 2.06	–
E34 [1], 111.1 nM	2.4 and 1.93	–
E34 [1], 333.3 nM	2.3 and 2.24	–
E34 [1], 1000 nM	2.35 and 1.99	–
E34 [8], 4.1 nM	–	0.598 and 0.534
E34 [8], 12.3 nM	–	0.575 and 0.607
E34 [8], 37 nM	–	0.606 and 0.576
E34 [8], 111.1 nM	–	0.429 and 0.564
E34 [8], 333.3 nM	–	0.575 and 0.595
E34 [8], 1000 nM	–	0.549 and 0.594
E57 [5], 4.1 nM	8.08 and 4.22	–
E57 [5], 12.3 nM	4.11 and 7.9	–
E57 [5], 37 nM	4.48 and 8.38	–
E57 [5], 111.1 nM	4.53 and 7.47	–
E57 [5], 333.3 nM	4.17 and 7.46	–
E57 [5], 1000 nM	4.05 and 7.38	–
E57 [5], 3000 nM	3.9 and 9.85	–
E57 [12], 4.1 nM	–	0.0969 and 0.0961
E57 [12], 12.3 nM	–	0.0867 and 0.0693
E57 [12], 37 nM	–	0.0872 and 0.0935
E57 [12], 111.1 nM	–	0.101 and 0.085
E57 [12], 333.3 nM	–	0.0996 and 0.117
E57 [12], 1000 nM	–	0.119 and 0.0974
FT3469 [7], 4.1 nM	2.95 and 2.85	–
FT3469 [7], 12.3 nM	2.63 and 2.23	–
FT3469 [7], 37 nM	2.78 and 2.25	–
FT3469 [7], 111.1 nM	3.02 and 2.28	–
FT3469 [7], 333.3 nM	3.08 and 2.17	–
FT3469 [7], 1000 nM	2.54 and 2.94	–
FT3469 [14], 4.1 nM	–	0.493 and 0.523
FT3469 [14], 12.3 nM	–	0.562 and 0.558
FT3469 [14], 37 nM	–	0.606 and 0.566
FT3469 [14], 111.1 nM	–	0.534 and 0.565
FT3469 [14], 333.3 nM	–	0.489 and 0.597
FT3469 [14], 1000 nM	–	0.556 and 0.549

CC(C)C[C@H](NC(=O)CNC(=O)c1cc(Cl)ccc1Cl)B1OC(=O)C(CC(=O)O)(CC(=O)O)O1 [MLN9708]
Conditions	phenotypic distance	surviving fraction
E13 [6], 4.1 nM	9.36	–
E13 [6], 12.3 nM	9.93	–
E13 [6], 37 nM	9	–
E13 [6], 111.1 nM	12.2	–
E13 [6], 333.3 nM	10.8	–
E13 [6], 1000 nM	10.1	–
E13 [6], 3000 nM	16.2	–
E13 [13], 4.1 nM	–	0.0208
E13 [13], 12.3 nM	–	0.00954
E13 [13], 37 nM	–	0.0104
E13 [13], 111.1 nM	–	0.00174
E13 [13], 333.3 nM	–	0.00347
E13 [13], 1000 nM	–	0.00607
E13 [13], 3000 nM	–	0.000868
E21 [4], 4.1 nM	7.66	–
E21 [4], 12.3 nM	7.71	–
E21 [4], 37 nM	11.9	–
E21 [4], 111.1 nM	7.64	–
E21 [4], 333.3 nM	11.8	–
E21 [4], 1000 nM	11.7	–
E21 [4], 3000 nM	15.7	–
E21 [11], 4.1 nM	–	0.0299
E21 [11], 12.3 nM	–	0.0187
E21 [11], 37 nM	–	0.0103
E21 [11], 111.1 nM	–	0.0103
E21 [11], 333.3 nM	–	0.0084
E21 [11], 1000 nM	–	0.00373
E21 [11], 3000 nM	–	0.000933
E28 [3], 4.1 nM	3.84	–
E28 [3], 12.3 nM	3.91	–
E28 [3], 37 nM	4.06	–
E28 [3], 111.1 nM	7.19	–
E28 [3], 333.3 nM	5.5	–
E28 [3], 1000 nM	5.6	–
E28 [3], 3000 nM	6.86	–
E28 [10], 4.1 nM	–	0.244
E28 [10], 12.3 nM	–	0.239
E28 [10], 37 nM	–	0.158
E28 [10], 111.1 nM	–	0.0898
E28 [10], 333.3 nM	–	0.0988
E28 [10], 1000 nM	–	0.0719
E28 [10], 3000 nM	–	0.0719
E31 [2], 4.1 nM	5.67	–
E31 [2], 12.3 nM	7.74	–
E31 [2], 37 nM	9.26	–
E31 [2], 111.1 nM	14.5	–
E31 [2], 333.3 nM	11.4	–
E31 [2], 1000 nM	13	–
E31 [2], 3000 nM	12.3	–
E31 [9], 4.1 nM	–	0.082
E31 [9], 12.3 nM	–	0.0803
E31 [9], 37 nM	–	0.0151
E31 [9], 111.1 nM	–	0.00335
E31 [9], 333.3 nM	–	0.00669
E31 [9], 1000 nM	–	0.00335
E31 [9], 3000 nM	–	0.00669
E34 [1], 4.1 nM	5.41	–
E34 [1], 12.3 nM	6.29	–
E34 [1], 37 nM	7.18	–
E34 [1], 111.1 nM	10.9	–
E34 [1], 333.3 nM	8.93	–
E34 [1], 1000 nM	12.6	–
E34 [1], 3000 nM	10.5	–
E34 [8], 4.1 nM	–	0.307
E34 [8], 12.3 nM	–	0.293
E34 [8], 37 nM	–	0.123
E34 [8], 111.1 nM	–	0.0439
E34 [8], 333.3 nM	–	0.064
E34 [8], 1000 nM	–	0.0421
E34 [8], 3000 nM	–	0.0549
E57 [5], 4.1 nM	11.8	–
E57 [5], 12.3 nM	12.3	–
E57 [5], 37 nM	11.3	–
E57 [5], 111.1 nM	10.8	–
E57 [5], 333.3 nM	14.4	–
E57 [5], 1000 nM	8.37	–
E57 [5], 3000 nM	8.49	–
E57 [12], 4.1 nM	–	0.0256
E57 [12], 12.3 nM	–	0.0162
E57 [12], 37 nM	–	0.011
E57 [12], 111.1 nM	–	0.00523
E57 [12], 333.3 nM	–	0.00523
E57 [12], 1000 nM	–	0.00366
E57 [12], 3000 nM	–	0.0105
FT3469 [7], 4.1 nM	3.13	–
FT3469 [7], 12.3 nM	3.57	–
FT3469 [7], 37 nM	5.22	–
FT3469 [7], 111.1 nM	6.65	–
FT3469 [7], 333.3 nM	7.14	–
FT3469 [7], 1000 nM	7.83	–
FT3469 [7], 3000 nM	8.15	–
FT3469 [14], 4.1 nM	–	0.412
FT3469 [14], 12.3 nM	–	0.492
FT3469 [14], 37 nM	–	0.439
FT3469 [14], 111.1 nM	–	0.445
FT3469 [14], 333.3 nM	–	0.306
FT3469 [14], 1000 nM	–	0.156
FT3469 [14], 3000 nM	–	0.212

Reference: the supplement of paper PMC13207355
